Literature values as cited in WO2011103442A2, “Synthesis of the potent immunosuppressant agents dalesconol a and b” (Columbia University in the City of New York, priority 2010, dated 2011).
Values after ≈ are worked out from the molar mass of the structure shown.

Key:
[1] = for IC50, immunosuppressive activity: as repeated in the Discussion
[2] = system: ConA-induced proliferation of mouse spleen cells; conditions: in vitro
[3] = compared with cyclosporin A
acetylcholinesterase = acetylcholinesterase (Homo sapiens, UniProt P22303)
Chain of acetylcholinesterase (P22303 32-614): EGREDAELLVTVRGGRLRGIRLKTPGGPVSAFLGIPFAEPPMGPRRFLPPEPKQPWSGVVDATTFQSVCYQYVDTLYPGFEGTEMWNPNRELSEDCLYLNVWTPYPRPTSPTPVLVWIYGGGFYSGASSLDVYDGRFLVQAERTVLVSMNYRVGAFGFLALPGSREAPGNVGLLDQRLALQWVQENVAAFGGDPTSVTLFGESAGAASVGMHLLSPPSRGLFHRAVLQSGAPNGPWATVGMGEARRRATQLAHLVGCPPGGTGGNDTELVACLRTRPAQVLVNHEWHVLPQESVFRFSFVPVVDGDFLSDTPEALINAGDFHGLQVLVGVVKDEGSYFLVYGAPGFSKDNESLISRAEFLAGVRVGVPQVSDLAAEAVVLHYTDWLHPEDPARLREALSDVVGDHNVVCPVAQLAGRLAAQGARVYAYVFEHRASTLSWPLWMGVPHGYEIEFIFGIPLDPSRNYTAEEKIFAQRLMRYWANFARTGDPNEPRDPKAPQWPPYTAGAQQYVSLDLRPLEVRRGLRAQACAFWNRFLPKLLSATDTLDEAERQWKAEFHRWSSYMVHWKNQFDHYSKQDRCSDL

cyclosporin A [reference compound]
IC50, immunosuppressive activity [1]: 6e-05 ng/mL

O=C1CC2CC(=O)c3c(O)cccc3C23C(=C2C=CC(=O)c4c(O)ccc3c42)c2cccc(O)c21 (stereo not drawn) [dalesconol A]
selectivity factor, activity versus cytotoxic effects [2]: greater than 500
background cytotoxicity relative to cyclosporin A [3]: significantly reduced background cytotoxicity
acetylcholinesterase inhibition (acetylcholinesterase): potent acetylcholinesterase inhibitor
IC50, immunosuppressive activity [1]: 0.00016 ng/mL (≈ 0.000346 nM)
immunosuppressive potency of racemic mixture versus separated enantiomers ([1]; racemic mixture): more potent than their separated enantiomers
